Laboratory results from paper PMC10439952, “JT002, a small molecule inhibitor of the NLRP3 inflammasome for the treatment of autoinflammatory disorders” (Scientific Reports, 2023).
Read-outs that look alike come from different tables or passages of the source.

Assays:
NLRP3 inflammasome [1] = molecular target: T1, NLRP3 inflammasome (Mus musculus, UniProt Q8R4B8); test: Inhibition of IL-1β production in mouse BMDMs stimulated by LPS + monosodium urate crystals; format: cell-based; set-up: host or cells: mouse PBMCs; mouse bone-marrow derived macrophages; mouse whole blood (C57BL/6 in the ex vivo study); details: Mouse BMDM, read-out: Geo Av IC50, IL-1β
T1 sequence (Q8R4B8 whole entry): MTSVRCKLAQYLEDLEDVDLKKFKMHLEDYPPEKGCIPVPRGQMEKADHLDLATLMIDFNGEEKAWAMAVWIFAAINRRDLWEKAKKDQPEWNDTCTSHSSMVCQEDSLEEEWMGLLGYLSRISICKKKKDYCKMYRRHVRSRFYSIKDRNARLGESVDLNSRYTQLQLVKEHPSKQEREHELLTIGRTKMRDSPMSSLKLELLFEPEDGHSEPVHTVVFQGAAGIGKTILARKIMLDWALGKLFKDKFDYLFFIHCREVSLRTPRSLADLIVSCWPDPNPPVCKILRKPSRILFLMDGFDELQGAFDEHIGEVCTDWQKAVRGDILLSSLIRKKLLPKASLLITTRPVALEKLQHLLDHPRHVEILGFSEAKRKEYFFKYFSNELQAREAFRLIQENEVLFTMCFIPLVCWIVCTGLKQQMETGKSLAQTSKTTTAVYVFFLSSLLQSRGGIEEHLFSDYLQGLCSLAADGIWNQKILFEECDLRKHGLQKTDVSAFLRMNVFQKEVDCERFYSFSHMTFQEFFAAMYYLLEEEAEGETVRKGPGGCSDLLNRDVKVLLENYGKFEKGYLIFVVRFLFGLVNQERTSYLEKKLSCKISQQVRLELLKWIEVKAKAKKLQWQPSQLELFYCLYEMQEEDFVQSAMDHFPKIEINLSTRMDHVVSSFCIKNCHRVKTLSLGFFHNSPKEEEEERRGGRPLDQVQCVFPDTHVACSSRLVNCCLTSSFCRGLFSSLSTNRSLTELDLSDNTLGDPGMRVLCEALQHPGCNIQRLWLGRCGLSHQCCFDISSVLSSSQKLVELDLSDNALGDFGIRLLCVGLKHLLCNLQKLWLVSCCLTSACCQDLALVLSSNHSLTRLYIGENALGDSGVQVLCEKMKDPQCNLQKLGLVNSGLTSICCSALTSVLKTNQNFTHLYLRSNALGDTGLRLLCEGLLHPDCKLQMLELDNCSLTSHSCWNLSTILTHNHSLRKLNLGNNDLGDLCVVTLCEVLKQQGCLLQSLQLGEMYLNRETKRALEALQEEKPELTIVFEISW
Procedure: (§1) Inflammasome activation and whole blood assays were essentially carried out as described earlier. Details can be found in the supplementary information section accompanying this publication. A protocol for blood draws from healthy volunteers and use of the blood in preclinical assays was approved by Western Institutional Review Board, Inc (Puyallup, WA, USA). Informed consent was obtained from each donor prior to the first blood draw.
(§2) Cell viability was determined by addition of an equal volume of CellTiter-Glo® 2.0 reagent (Promega) to the remaining cells/supernatant in each well. Intracellular Caspase-1 activity was measured using the Caspase-Glo® assay (Promega) according to the manufacturer’s instructions. The biochemical capsase-1 assay was conducted at Reaction Biology Corporation (Malvern, USA). Human IL-1β, IL-1α, and TNFα and mouse IL-1β were measured in cell culture supernatants using homogeneous time resolved fluorescence assay kits (HTRF, Cisbio, Codolet, France). Human IL-18 was measured in cell culture supernatants using an ELISA kit (R&D Systems, Minneapolis, MN, USA). Plasma IL-1β concentrations were determined by Quantikine® ELISA (R&D Systems, Minneapolis, MN).
(§3) 4H). MS: m/z 433.1 (M+H+). […]

TNFα production = TNFα production in human PBMCs stimulated by LPS + ATP; format: cell-based; details: Human PBMC
Procedure: as §1, §2, §3

NLRP3 inflammasome [2] = molecular target: T1, NLRP3 inflammasome; test: Inhibition of non-canonical NLRP3 pathway IL-1β production in mouse BMDMs (Pam3CSK4 + transfected LPS); format: cell-based; set-up: host or cells: mouse PBMCs; mouse bone-marrow derived macrophages; mouse whole blood (C57BL/6 in the ex vivo study); details: Mouse BMDM, read-out: Geo Av IC50, IL-1β
Procedure: as §1, §2, §3

NLRP3 inflammasome [3] = molecular target: NLRP3 inflammasome (Homo sapiens, UniProt Q96P20); test: Inhibition of IL-1β, IL-18 and IL-1α production in human PBMCs stimulated by LPS + ATP; format: cell-based; set-up: host or cells: human PBMCs; fresh heparinised human whole blood from healthy volunteers; details: Human PBMC
Sequence of NLRP3 inflammasome (Homo sapiens, UniProt Q96P20) (Q96P20 whole entry): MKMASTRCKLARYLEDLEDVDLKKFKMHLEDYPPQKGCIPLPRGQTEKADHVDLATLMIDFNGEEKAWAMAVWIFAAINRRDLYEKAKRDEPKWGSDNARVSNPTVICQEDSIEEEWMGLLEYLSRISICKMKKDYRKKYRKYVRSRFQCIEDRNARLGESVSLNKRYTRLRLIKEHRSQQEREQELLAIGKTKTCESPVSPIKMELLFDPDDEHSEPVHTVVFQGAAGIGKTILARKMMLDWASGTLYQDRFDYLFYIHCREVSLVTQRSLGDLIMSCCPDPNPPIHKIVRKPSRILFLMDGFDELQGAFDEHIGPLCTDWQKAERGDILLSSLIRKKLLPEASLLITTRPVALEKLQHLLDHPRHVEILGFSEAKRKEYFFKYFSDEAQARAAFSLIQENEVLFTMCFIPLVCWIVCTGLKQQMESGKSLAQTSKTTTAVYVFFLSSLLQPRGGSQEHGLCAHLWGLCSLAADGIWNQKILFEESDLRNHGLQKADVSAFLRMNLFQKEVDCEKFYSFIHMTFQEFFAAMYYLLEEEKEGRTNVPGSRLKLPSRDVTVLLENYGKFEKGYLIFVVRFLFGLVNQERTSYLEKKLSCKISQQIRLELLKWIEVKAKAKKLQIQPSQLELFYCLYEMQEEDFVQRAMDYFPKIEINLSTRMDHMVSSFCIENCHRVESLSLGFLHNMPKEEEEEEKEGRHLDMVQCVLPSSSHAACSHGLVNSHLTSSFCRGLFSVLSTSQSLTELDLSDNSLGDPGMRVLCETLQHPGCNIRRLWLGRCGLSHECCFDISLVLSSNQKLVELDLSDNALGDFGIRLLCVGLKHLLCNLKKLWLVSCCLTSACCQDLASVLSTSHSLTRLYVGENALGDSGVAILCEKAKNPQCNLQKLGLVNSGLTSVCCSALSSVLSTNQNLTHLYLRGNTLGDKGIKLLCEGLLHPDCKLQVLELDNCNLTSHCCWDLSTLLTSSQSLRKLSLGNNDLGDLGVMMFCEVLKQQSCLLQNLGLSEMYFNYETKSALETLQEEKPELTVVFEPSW
Procedure: as §1, §2
4H). MS: m/z 433.1 (M+H+).
Inflammasome activation.PBMCs (iXCells Biotechnologies, San Diego, USA) were thawed the day before the assay and seeded in complete medium (RPMI 1640 medium with GlutaMAX, supplemented with an additional 2.5 g/L D-glucose, 10% Fet al Bovine Serum, 100 mM Sodium Pyruvate, 1% Penicillin/Streptomycin, 10 mM HEPES and 0.05 mM β -mercaptoethanol) in polystyrene V-bottom 96-well plates at 5x10^4 cells per well and incubated overnight at 37°C with 5% CO 2. […]
flagellin, prepared in Opt iMEM and combined with Lipofectamine 2000. […] After priming Nlrp3 -/- mBMDMs with 100 ng/mL of LPS for 3- 5 h, cells were exposed to 100 ng/mL L18- MDP and incubated overnight.At the end of the incubation period of the assays above, plates were briefly centri fuged and hal f of the cell culture supern atant remo ved and either analysed i mmediately or stored at - 80°C for subs equent cytokine […]

NLRP3 inflammasome [4] = molecular target: T1, NLRP3 inflammasome; test: Inhibition of IL-1β production in mouse BMDMs stimulated by LPS + nigericin; format: cell-based; set-up: host or cells: mouse PBMCs; mouse bone-marrow derived macrophages; mouse whole blood (C57BL/6 in the ex vivo study); details: Mouse BMDM, read-out: Geo Av IC50, IL-1β
Procedure: as §1, §2, §3

Lipophilicity comparison = format: physicochemical; details: compared with MCC950

IC50 (NLRP3 inflammasome [1]): 3 nM | IC50 (TNFα production; read-out: Geo Av IC50, TNFα): > 1000 nM | IC50 (NLRP3 inflammasome [2]): 30 nM | IC50 (NLRP3 inflammasome [3]; read-out: Geo Av IC50, IL-1α): 3 nM | IC50 (NLRP3 inflammasome [3]; read-out: Geo Av IC50, IL-1β): 4 nM | IC50 (NLRP3 inflammasome [3]; read-out: Geo Av IC50, IL-18): 4 nM | IC50 (NLRP3 inflammasome [4]): 23 nM | lipophilicity (Lipophilicity comparison): lower lipophilicity than MCC950
SMILES: CO[C@@H]1COc2c(S(=O)(=O)NC(=O)Nc3c4c(cc5c3CCC5)CCC4)cnn2C1 [JT002]
effect on TNFα production (TNFα production; JT002 concentrations up to 1 µM): no effect
